Reference: US7208515B2, “Diphenylmethyl compounds useful as muscarinic receptor antagonists” (Theravance, Inc., priority 2004, dated 2007)

Biological target: T1, hM2 receptor (CHO-K1 cells) (Homo sapiens, UniProt P08172)
T1 construct: expressed in transfected cells; host or cells: CHO-K1 cells
T1 sequence (P08172 1-466): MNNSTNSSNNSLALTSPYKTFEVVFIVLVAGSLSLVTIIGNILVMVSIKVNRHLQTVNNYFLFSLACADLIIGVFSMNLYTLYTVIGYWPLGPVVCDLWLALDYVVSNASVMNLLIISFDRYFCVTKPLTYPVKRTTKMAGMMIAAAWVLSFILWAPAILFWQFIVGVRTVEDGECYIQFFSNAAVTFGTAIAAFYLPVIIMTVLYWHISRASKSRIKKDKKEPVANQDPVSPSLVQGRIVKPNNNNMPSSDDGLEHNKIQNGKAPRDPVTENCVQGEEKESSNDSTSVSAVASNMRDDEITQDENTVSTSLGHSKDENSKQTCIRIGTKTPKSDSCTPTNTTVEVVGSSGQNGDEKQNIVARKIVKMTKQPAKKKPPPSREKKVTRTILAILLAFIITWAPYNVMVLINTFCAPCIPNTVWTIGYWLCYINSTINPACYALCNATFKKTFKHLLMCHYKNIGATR
Experiment: Blockade of agonist-mediated inhibition of cAMP accumulation
Assay type: cell-based
Details: CHO-K1 cells expressing the hM2 receptor; read-out: Ki value for blockade of oxotremorine-inhibition of forskolin-mediated cAMP accumulation
Experimental: A. Blockade of Agonist-Mediated Inhibition of cAMP Accumulation
In this assay, the functional potency of a test compound was determined by measuring the ability of the test compound to block oxotremorine-inhibition of forskolin-mediated cAMP accumulation in CHO-K1 cells expressing the hM2 receptor.
cAMP assays were performed in a radioimmunoassay format using the Flashplate Adenylyl Cyclase Activation Assay System with ^125I-cAMP (NEN SMP004B, PerkinElmer Life Sciences Inc., Boston, Mass.), according to the manufacturer's instructions.
Cells were rinsed once with dPBS and lifted with Trypsin-EDTA solution (0.05% trypsin/0.53 mM EDTA) as described in the Cell Culture and Membrane Preparation section above. […] The cell pellet was then re-suspended in 10 mL dPBS, and the cells were counted with a Coulter Z1 Dual Particle Counter (Beckman Coulter, Fullerton, Calif.). […]
Reactions were incubated for 10 minutes at 37° C. and stopped by addition of 100 μL ice-cold detection buffer. Plates were sealed, incubated overnight at room temperature and counted the next morning on a PerkinElmer TopCount liquid scintillation counter (PerkinElmer Inc., Wellesley, Mass.). The amount of cAMP produced (pmol/well) was calculated based on the counts observed for the samples and cAMP standards, as described in the manufacturer's user manual. […]

SMILES: CNCC(=O)NCCCCCN1CC[C@@H](C(C(N)=O)(c2ccccc2)c2ccccc2)C1 [Example 1]
- Ki: < 100 nM
